From a melting point compilation (Tetko et al.)

Row | Structure (SMILES) | melting point [°C]
1 | CSC(=CC(=O)c1ccccc1)SC | 92 to 94
2 | COc1cc(C(=O)O)ccc1OCC(C)C | 145 to 147
3 | Cn1c(Cl)nnc1-c1ccc(Cl)cc1Cl | 161 to 163
4 | CC(C)C(Br)C(=O)N1CCC(C(N)=O)CC1 (configuration not stated) | 172 to 174
5 | COc1ccc(-c2cc(N)ccc2OC(F)F)cc1 | 131 to 135
6 | O=C(O)c1n[nH]c2ccc(Cl)cc12 | 271 to 273
7 | O=C(O)c1cccnc1Oc1cccnc1 | 190 to 192
8 | CS(=O)(=O)N1CCN(S(=O)(=O)Cl)CC1 | 222 to 224
9 | COc1ccc2ccc(-c3nn(-c4ccccc4)cc3C(=O)O)cc2c1 | 254 to 256
10 | O=C(CN=C=S)NC1CC1 | 169 to 171
11 | COc1cc(C(C)=O)cc(O)c1OC | 59 to 61
12 | CC1(C)NC(=O)N=C1N | 259 to 261
13 | O=C(O)C1=CCCCO1 | 66 to 68
14 | Cc1c(Cl)nc(N(C)C)nc1Cl | 54 to 56
15 | CC(C)(C)OC(=O)NCc1nnn[nH]1 | 153 to 155
16 | c1cc(NC2CCCCCC2)c2cccnc2c1 | 100 to 102
17 | NC(Cn1cccn1)=NO | 80 to 82
18 | NC(=S)Cc1cccc(Cl)c1 | 105 to 107

Row | Structure (SMILES) | melting point [°C]
19 | O=C(O)c1ncncc1Cl | 153 to 155
20 | Nc1ccn(-c2ccncc2)n1 | 192 to 194
21 | Cc1sc2ncn(CC(=O)O)c(=O)c2c1C | 229 to 231
22 | O=C(O)C1(N2CCOCC2)CCC1 | 209 to 211
23 | O=Cc1csc(-c2ccco2)n1 | 90 to 92
24 | Fc1ccc(F)c2c(Cl)ccnc12 | 154 to 156
25 | CC(C)CC(C(=O)O)N1CCCCC1=O (configuration not stated) | 182 to 184
26 | Cc1ccsc1-c1nsc(N)n1 | 165 to 167
27 | Nc1cc(Cl)cc(Br)c1OC(F)F | 86 to 88
28 | NCc1noc(-c2ccccc2)n1 | 115 to 117
29 | COc1ccc2c(c1)OCC2=O | 119 to 121
30 | O=C(O)C1CCCN1C(=O)c1ccc(Cl)s1 (configuration not stated) | 127 to 129
31 | Nc1cc(-c2cc(F)cc(Br)c2)[nH]n1 | 104 to 106
32 | O=C(NC1CCNCC1)C1CCOCC1 | 156 to 158
33 | O=C(CCl)NC1CCN(Cc2ccccc2)CC1 | 117 to 119
34 | O=C(O)c1ccncc1N1CCOCC1 | 201 to 203
35 | Nc1ccccc1N1C(=O)CCC1=O | 231 to 233
36 | O=Cc1ccccc1OCc1ccccn1 | 73 to 75

Further lines, results first:

Row | melting point [°C] | Structure (SMILES)
37 | 207 to 209 | O=C1c2ccc([N+](=O)[O-])cc2C(=O)N1c1ccc(F)cc1
38 | 136 to 138 | Nc1cc(Cc2ccccc2)ccc1O
39 | 44 to 46 | COc1ccccc1CC(C)(C)C(=O)O
40 | 241 to 243 | O=C(O)Cn1cnc2ccccc2c1=O
41 | 207 to 209 | NNc1ccc(S(=O)(=O)Nc2ccccc2)cc1[N+](=O)[O-]
42 | 38 to 40 | CCOC(=O)CCS(=O)(=O)c1ccc(F)cc1
43 | 145 to 147 | CN(c1ccc(OCC(=O)O)cc1)S(=O)(=O)c1cccs1
44 | 116 to 119 | COc1ccc2ccc(O)cc2c1
45 | 219 to 221 | CN1CC(=O)N(Cc2ccc(C(N)=O)cc2[N+](=O)[O-])C1=O
46 | 100 to 102 | Cc1ccc(S(=O)(=O)N2CCCCC2C(=O)O)cc1 (configuration not stated)
47 | 172 to 174 | CCOC(=O)C(=O)Nc1ccc([N+](=O)[O-])cc1
48 | 76 to 78 | Cc1ccc(OCC2CCCO2)c(S(=O)(=O)Cl)c1 (configuration not stated)
49 | 74 to 76 | CCOC(=O)Nc1c(F)cc(F)cc1C#C[Si](C)(C)C
50 | 199 to 201 | Nc1cc(C(=O)Nc2ccccc2)ccc1Cl
51 | 149 to 151 | Cc1nc(Cl)ccc1C(=O)O
52 | 199 to 201 | O=C(O)Cn1cccc(C(F)(F)F)c1=O
53 | 200 to 202 | Cc1ccc(OCc2nc(C(=O)NC3=NCCS3)cs2)cc1
54 | 51 to 53 | O=C(O)CSc1ccccc1O
55 | 107 to 109 | CCOc1ccc(Br)cc1S(=O)(=O)NC
56 | 182 to 184 | NC(=NO)c1cccc([N+](=O)[O-])c1
57 | 214 to 216 | COC(=O)c1c[nH]c(=O)c([N+](=O)[O-])c1
